Tests used:
Format in all cases: cell-based
[1] = test system: Escherichia coli WP2uvrA; assay: Ames test (reverse mutation test), WP2uvrA
Protocol: (§1) The solvent used herein was dimethyl sulfoxide (DMSO, 100 µL/plate).
(§2) The mixtures were preincubated at 37° C. for 20 minutes while shaking. […] Two plates per treatment were used.

[2] = test system: Salmonella typhimurium TA98; assay: Ames test (reverse mutation test), TA98; conditions: for potential to induce reverse mutations: TA98 with S9 mix
Protocol: as §1, §2

[3] = test system: Salmonella typhimurium TA1535; assay: Ames test (reverse mutation test), TA1535
Protocol: as §1, §2

[4] = test system: Salmonella typhimurium TA1537; assay: Ames test (reverse mutation test), TA1537; conditions: for potential to induce reverse mutations: TA1537 with S9 mix
Protocol: as §1, §2

[5] = test system: Salmonella typhimurium TA100; assay: Ames test (reverse mutation test), TA100; conditions: for potential to induce reverse mutations: TA100 with S9 mix
Protocol: as §1, §2

## Cc1cccc(-n2nc(N)cc2-c2cccc(OC(F)(F)F)c2)c1 [Metabolite H]
[1]; S9 Mix +, dose 2.3 µg/plate
  Number of revertant colonies WP2uvrA: 23
[1]; S9 Mix +, dose 6.9 µg/plate
  Number of revertant colonies WP2uvrA: 25
[1]; S9 Mix +, dose 21 µg/plate
  Number of revertant colonies WP2uvrA: 25
[1]; S9 Mix +, dose 62 µg/plate
  Number of revertant colonies WP2uvrA: 35
[1]; S9 Mix +, dose 185 µg/plate
  Number of revertant colonies WP2uvrA: 26
[1]; S9 Mix +, dose 556 µg/plate
  Number of revertant colonies WP2uvrA: 20
[1]; S9 Mix +, dose 1667 µg/plate
  Number of revertant colonies WP2uvrA: 19
[1]; S9 Mix +, dose 5000 µg/plate
  Number of revertant colonies WP2uvrA: 9
[1]; S9 Mix -, dose 2.3 µg/plate
  Number of revertant colonies WP2uvrA: 21
[1]; S9 Mix -, dose 6.9 µg/plate
  Number of revertant colonies WP2uvrA: 18
[1]; S9 Mix -, dose 21 µg/plate
  Number of revertant colonies WP2uvrA: 18
[1]; S9 Mix -, dose 62 µg/plate
  Number of revertant colonies WP2uvrA: 20
[1]; S9 Mix -, dose 185 µg/plate
  Number of revertant colonies WP2uvrA: 20
[1]; S9 Mix -, dose 556 µg/plate
  Number of revertant colonies WP2uvrA: 17
[1]; S9 Mix -, dose 1667 µg/plate
  Number of revertant colonies WP2uvrA: 13
[1]; S9 Mix -, dose 5000 µg/plate
  Number of revertant colonies WP2uvrA: 8
[2]; S9 Mix +, dose 2.3 µg/plate
  Number of revertant colonies TA98: 56
[2]; S9 Mix +, dose 6.9 µg/plate
  Number of revertant colonies TA98: 61
[2]; S9 Mix +, dose 21 µg/plate
  Number of revertant colonies TA98: 152
[2]; S9 Mix +, dose 62 µg/plate
  Number of revertant colonies TA98: 194
[2]; S9 Mix +, dose 185 µg/plate
  Number of revertant colonies TA98: 85
[2]; S9 Mix +, dose 556 µg/plate
  Number of revertant colonies TA98: 56
[2]; S9 Mix +, dose 1667 µg/plate
  Number of revertant colonies TA98: 48
[2]; S9 Mix +, dose 5000 µg/plate
  Number of revertant colonies TA98: 20
[2]; S9 Mix -, dose 2.3 µg/plate
  Number of revertant colonies TA98: 18
[2]; S9 Mix -, dose 6.9 µg/plate
  Number of revertant colonies TA98: 23
[2]; S9 Mix -, dose 21 µg/plate
  Number of revertant colonies TA98: 18
[2]; S9 Mix -, dose 62 µg/plate
  Number of revertant colonies TA98: 20
[2]; S9 Mix -, dose 185 µg/plate
  Number of revertant colonies TA98: 22
[2]; S9 Mix -, dose 556 µg/plate
  Number of revertant colonies TA98: 20
[2]; S9 Mix -, dose 1667 µg/plate
  Number of revertant colonies TA98: 17
[2]; S9 Mix -, dose 5000 µg/plate
  Number of revertant colonies TA98: 3
[2]
  potential to induce reverse mutations: showed potential to induce reverse mutations
[3]; S9 Mix +, dose 1667 µg/plate
  Number of revertant colonies TA1535: 3
[3]; S9 Mix -, dose 185 µg/plate
  Number of revertant colonies TA1535: 14
[3]; S9 Mix -, dose 1667 µg/plate
  Number of revertant colonies TA1535: 6
[4]; S9 Mix +, dose 2.3 µg/plate
  Number of revertant colonies TA1537: 11
[4]; S9 Mix +, dose 6.9 µg/plate
  Number of revertant colonies TA1537: 15
[4]; S9 Mix +, dose 21 µg/plate
  Number of revertant colonies TA1537: 26
[4]; S9 Mix +, dose 62 µg/plate
  Number of revertant colonies TA1537: 35
[4]; S9 Mix +, dose 185 µg/plate
  Number of revertant colonies TA1537: 18
[4]; S9 Mix +, dose 556 µg/plate
  Number of revertant colonies TA1537: 10
[4]; S9 Mix +, dose 1667 µg/plate
  Number of revertant colonies TA1537: 19
[4]; S9 Mix +, dose 5000 µg/plate
  Number of revertant colonies TA1537: 15
[4]; S9 Mix -, dose 2.3 µg/plate
  Number of revertant colonies TA1537: 9
[4]; S9 Mix -, dose 6.9 µg/plate
  Number of revertant colonies TA1537: 9
[4]; S9 Mix -, dose 21 µg/plate
  Number of revertant colonies TA1537: 11
[4]; S9 Mix -, dose 62 µg/plate
  Number of revertant colonies TA1537: 9
[4]; S9 Mix -, dose 185 µg/plate
  Number of revertant colonies TA1537: 4
[4]; S9 Mix -, dose 556 µg/plate
  Number of revertant colonies TA1537: 6
[4]; S9 Mix -, dose 1667 µg/plate
  Number of revertant colonies TA1537: 5
[4]; S9 Mix -, dose 5000 µg/plate
  Number of revertant colonies TA1537: 2
[4]
  potential to induce reverse mutations: showed potential to induce reverse mutations
[5]; S9 Mix +, dose 2.3 µg/plate
  Number of revertant colonies TA100: 449
[5]; S9 Mix +, dose 6.9 µg/plate
  Number of revertant colonies TA100: 1035
[5]; S9 Mix +, dose 21 µg/plate
  Number of revertant colonies TA100: 2000
[5]; S9 Mix +, dose 62 µg/plate
  Number of revertant colonies TA100: 2212
[5]; S9 Mix +, dose 185 µg/plate
  Number of revertant colonies TA100: 722
[5]; S9 Mix +, dose 556 µg/plate
  Number of revertant colonies TA100: 373
[5]; S9 Mix +, dose 1667 µg/plate
  Number of revertant colonies TA100: 242
[5]; S9 Mix +, dose 5000 µg/plate
  Number of revertant colonies TA100: 75
[5]; S9 Mix -, dose 2.3 µg/plate
  Number of revertant colonies TA100: 130
[5]; S9 Mix -, dose 6.9 µg/plate
  Number of revertant colonies TA100: 127
[5]; S9 Mix -, dose 21 µg/plate
  Number of revertant colonies TA100: 136
[5]; S9 Mix -, dose 62 µg/plate
  Number of revertant colonies TA100: 113
[5]; S9 Mix -, dose 185 µg/plate
  Number of revertant colonies TA100: 103
[5]; S9 Mix -, dose 556 µg/plate
  Number of revertant colonies TA100: 88
[5]; S9 Mix -, dose 1667 µg/plate
  Number of revertant colonies TA100: 79
[5]; S9 Mix -, dose 5000 µg/plate
  Number of revertant colonies TA100: 55
[5]
  potential to induce reverse mutations: showed potential to induce reverse mutations

## Cc1ccc(-n2nc(N)cc2-c2cccc(OCC(F)(F)F)c2)cc1 [Metabolite F]
[1]; S9 Mix +, dose 2.3 µg/plate
  Number of revertant colonies WP2uvrA: 25
[1]; S9 Mix +, dose 6.9 µg/plate
  Number of revertant colonies WP2uvrA: 20
[1]; S9 Mix +, dose 21 µg/plate
  Number of revertant colonies WP2uvrA: 30
[1]; S9 Mix +, dose 62 µg/plate
  Number of revertant colonies WP2uvrA: 24
[1]; S9 Mix +, dose 185 µg/plate
  Number of revertant colonies WP2uvrA: 20
[1]; S9 Mix +, dose 556 µg/plate
  Number of revertant colonies WP2uvrA: 24
[1]; S9 Mix +, dose 1667 µg/plate
  Number of revertant colonies WP2uvrA: 16
[1]; S9 Mix +, dose 5000 µg/plate
  Number of revertant colonies WP2uvrA: 6
[1]; S9 Mix -, dose 2.3 µg/plate
  Number of revertant colonies WP2uvrA: 24
[1]; S9 Mix -, dose 6.9 µg/plate
  Number of revertant colonies WP2uvrA: 23
[1]; S9 Mix -, dose 21 µg/plate
  Number of revertant colonies WP2uvrA: 26
[1]; S9 Mix -, dose 62 µg/plate
  Number of revertant colonies WP2uvrA: 19
[1]; S9 Mix -, dose 185 µg/plate
  Number of revertant colonies WP2uvrA: 13
[1]; S9 Mix -, dose 556 µg/plate
  Number of revertant colonies WP2uvrA: 74
[1]; S9 Mix -, dose 1667 µg/plate
  Number of revertant colonies WP2uvrA: 8
[1]; S9 Mix -, dose 5000 µg/plate
  Number of revertant colonies WP2uvrA: 5
[1]; WP2uvrA without S9 mix
  potential to induce reverse mutations: showed potential to induce reverse mutations
[2]; S9 Mix +, dose 2.3 µg/plate
  Number of revertant colonies TA98: 93
[2]; S9 Mix +, dose 6.9 µg/plate
  Number of revertant colonies TA98: 218
[2]; S9 Mix +, dose 21 µg/plate
  Number of revertant colonies TA98: 522
[2]; S9 Mix +, dose 62 µg/plate
  Number of revertant colonies TA98: 484
[2]; S9 Mix +, dose 185 µg/plate
  Number of revertant colonies TA98: 287
[2]; S9 Mix +, dose 556 µg/plate
  Number of revertant colonies TA98: 151
[2]; S9 Mix +, dose 1667 µg/plate
  Number of revertant colonies TA98: 61
[2]; S9 Mix +, dose 5000 µg/plate
  Number of revertant colonies TA98: 0
[2]; S9 Mix -, dose 2.3 µg/plate
  Number of revertant colonies TA98: 25
[2]; S9 Mix -, dose 6.9 µg/plate
  Number of revertant colonies TA98: 32
[2]; S9 Mix -, dose 21 µg/plate
  Number of revertant colonies TA98: 21
[2]; S9 Mix -, dose 62 µg/plate
  Number of revertant colonies TA98: 21
[2]; S9 Mix -, dose 185 µg/plate
  Number of revertant colonies TA98: 20
[2]; S9 Mix -, dose 556 µg/plate
  Number of revertant colonies TA98: 19
[2]; S9 Mix -, dose 1667 µg/plate
  Number of revertant colonies TA98: 6
[2]; S9 Mix -, dose 5000 µg/plate
  Number of revertant colonies TA98: 0
[2]
  potential to induce reverse mutations: showed potential to induce reverse mutations
[3]; S9 Mix +, dose 1667 µg/plate
  Number of revertant colonies TA1535: 0
[3]; S9 Mix -, dose 556 µg/plate
  Number of revertant colonies TA1535: 0
[3]; S9 Mix -, dose 1667 µg/plate
  Number of revertant colonies TA1535: 0
[4]; S9 Mix +, dose 2.3 µg/plate
  Number of revertant colonies TA1537: 41
[4]; S9 Mix +, dose 6.9 µg/plate
  Number of revertant colonies TA1537: 92
[4]; S9 Mix +, dose 21 µg/plate
  Number of revertant colonies TA1537: 157
[4]; S9 Mix +, dose 62 µg/plate
  Number of revertant colonies TA1537: 227
[4]; S9 Mix +, dose 185 µg/plate
  Number of revertant colonies TA1537: 151
[4]; S9 Mix +, dose 556 µg/plate
  Number of revertant colonies TA1537: 54
[4]; S9 Mix +, dose 1667 µg/plate
  Number of revertant colonies TA1537: 39
[4]; S9 Mix +, dose 5000 µg/plate
  Number of revertant colonies TA1537: 3
[4]; S9 Mix -, dose 2.3 µg/plate
  Number of revertant colonies TA1537: 9
[4]; S9 Mix -, dose 6.9 µg/plate
  Number of revertant colonies TA1537: 16
[4]; S9 Mix -, dose 21 µg/plate
  Number of revertant colonies TA1537: 16
[4]; S9 Mix -, dose 62 µg/plate
  Number of revertant colonies TA1537: 10
[4]; S9 Mix -, dose 185 µg/plate
  Number of revertant colonies TA1537: 3
[4]; S9 Mix -, dose 556 µg/plate
  Number of revertant colonies TA1537: 0
[4]; S9 Mix -, dose 1667 µg/plate
  Number of revertant colonies TA1537: 0
[4]; S9 Mix -, dose 5000 µg/plate
  Number of revertant colonies TA1537: 0
[4]
  potential to induce reverse mutations: showed potential to induce reverse mutations
[5]; S9 Mix +, dose 2.3 µg/plate
  Number of revertant colonies TA100: 553
[5]; S9 Mix +, dose 6.9 µg/plate
  Number of revertant colonies TA100: 1417
[5]; S9 Mix +, dose 21 µg/plate
  Number of revertant colonies TA100: 2888
[5]; S9 Mix +, dose 62 µg/plate
  Number of revertant colonies TA100: 3713
[5]; S9 Mix +, dose 185 µg/plate
  Number of revertant colonies TA100: 2889
[5]; S9 Mix +, dose 556 µg/plate
  Number of revertant colonies TA100: 1288
[5]; S9 Mix +, dose 1667 µg/plate
  Number of revertant colonies TA100: 1576
[5]; S9 Mix +, dose 5000 µg/plate
  Number of revertant colonies TA100: 1160
[5]; S9 Mix -, dose 2.3 µg/plate
  Number of revertant colonies TA100: 107
[5]; S9 Mix -, dose 6.9 µg/plate
  Number of revertant colonies TA100: 104
[5]; S9 Mix -, dose 21 µg/plate
  Number of revertant colonies TA100: 115
[5]; S9 Mix -, dose 62 µg/plate
  Number of revertant colonies TA100: 109
[5]; S9 Mix -, dose 185 µg/plate
  Number of revertant colonies TA100: 93
[5]; S9 Mix -, dose 556 µg/plate
  Number of revertant colonies TA100: 62
[5]; S9 Mix -, dose 1667 µg/plate
  Number of revertant colonies TA100: 58
[5]; S9 Mix -, dose 5000 µg/plate
  Number of revertant colonies TA100: 40
[5]
  potential to induce reverse mutations: showed potential to induce reverse mutations

Source: patent publication US20230210831A1, “CHRONIC KIDNEY DISEASE TREATMENT OR PREVENTION METHOD” (Japan Tobacco Inc., priority 2019, published 2023)
